The text below walks through data of ChEMBL document CHEMBL1144640, “Novel pyrazole derivatives as potent inhibitors of type II topoisomerases. Part 1: synthesis and preliminary SAR analysis” (Bioorg Med Chem Lett, 2007).

A short description of assay [1]: Inhibition of bacterial DNA gyrase. Also on record: species or system Bacteria.
For the next assay, the system named is Streptococcus pneumoniae. The experiment in a line: Antibacterial activity against Streptococcus pneumonia ATCC 49619. In kind it is functional.
The next assay relates to Escherichia coli. The experiment in a line: Antibacterial activity against Escherichia coli KL16. Type of assay: functional.
The test system of the next assay is Staphylococcus aureus. The experiment in a line: Antibacterial activity against Staphylococcus aureus ATCC 13709. In kind it is functional.
Assay [2] can be described thus: Inhibition of bacterial topoisomerase 4. Also on record: species or system Bacteria.

In brackets after ≈: the same amount, converted by molar mass.

In general, IC50 refers to the concentration at which inhibition is half-maximal. Lower therefore signals inhibition by little substance. By MIC is commonly meant the smallest concentration in the dilution series that meets the test's criterion for growth inhibition. Low readings indicate greater potency, high ones weaker potency.

Compound `COc1ccc2nccc(-n3cc4c(n3)CCN(Cc3ccc5c(c3)OCCO5)C4)c2c1` came in with an IC50 in assay [1] above 8 µg/mL. In addition, the MIC in the assay with Streptococcus pneumoniae, in the assay with Escherichia coli and against Staphylococcus aureus was above 128 µg/mL throughout.
The compound `COc1ccc2nccc(-n3ncc4c3CCN(Cc3ccc5c(c3)OCCO5)C4)c2c1` came in with an IC50 in assay [1] above 8 µg/mL. Also, the MIC in the assay on Streptococcus pneumoniae, in the assay on Escherichia coli and in the assay with Staphylococcus aureus was above 128 µg/mL in each case.
In the case of `COc1ccc2nccc(-n3ncc4c3CCC(NCc3ccc5c(c3)OCCO5)C4)c2c1` (stereo not given), the half-maximal inhibitory concentration (IC50) in assay [1] is above 8 µg/mL. The figures for the minimum inhibitory concentration (MIC) in the assay on Streptococcus pneumoniae, against Escherichia coli and in the assay on Staphylococcus aureus were 32 µg/mL (≈ 72.3 µM), above 128 µg/mL and 16 µg/mL (≈ 36.2 µM), respectively.
`COc1ccc2nccc(-n3cc4c(n3)CCC(NCc3ccc5c(c3)NC(=O)CS5)C4)c2c1` (stereo not given): the IC50 was 0.25 µg/mL (≈ 0.53 µM) in assay [1] and 0.03 µg/mL (≈ 0.0636 µM) in assay [2]. Moreover, the MIC with Streptococcus pneumoniae is 0.5 µg/mL (≈ 1.06 µM); in the assay with Escherichia coli it was 2 µg/mL (≈ 4.24 µM); against Staphylococcus aureus, 0.25 µg/mL (≈ 0.53 µM).
`COc1ccc2nccc(-n3cc4c(n3)CCC(NC(=O)c3ccc5c(c3)NC(=O)CS5)C4)c2c1` (stereo not given): the figures for the IC50 in assay [1] and in assay [2] were 1 µg/mL (≈ 2.06 µM) and 0.125 µg/mL (≈ 0.257 µM), respectively. The results for the MIC against Streptococcus pneumoniae, in the assay with Escherichia coli and against Staphylococcus aureus were 2 µg/mL (≈ 4.12 µM), 4 µg/mL (≈ 8.24 µM) and 4 µg/mL (≈ 8.24 µM), respectively.
Take `COc1ccc2nccc(-n3cc4c(n3)CCC(NCc3ccc5c(c3)NC(=O)CS5)C4)c2n1` (stereo not given): the half-maximal inhibitory concentration (IC50) was found to be 0.25 µg/mL (≈ 0.529 µM) in assay [1] and 0.016 µg/mL (≈ 0.0339 µM) in assay [2]. Moreover, the minimal inhibitory concentration (MIC) against Streptococcus pneumoniae worked out at 2 µg/mL (≈ 4.23 µM); against Escherichia coli, 1 µg/mL (≈ 2.12 µM); against Staphylococcus aureus, 0.25 µg/mL (≈ 0.529 µM).
`COc1ccc2nccc(-n3cc4c(n3)CCC(NC(=O)c3ccc5c(c3)NC(=O)CS5)C4)c2n1` (stereo not given): the IC50 in assay [1] was 0.06 µg/mL (≈ 0.123 µM); in assay [2] it was 0.25 µg/mL (≈ 0.514 µM). Besides, the minimum inhibitory concentration (MIC) in the assay with Streptococcus pneumoniae came out at 4 µg/mL (≈ 8.22 µM); with Escherichia coli it was 128 µg/mL (≈ 263 µM); with Staphylococcus aureus, 0.125 µg/mL (≈ 0.257 µM).
For `COc1ccc2nccc(-n3cc4c(n3)CCN(C(=O)c3ccc5c(c3)NC(=O)CS5)CC4)c2n1`, the IC50 in assay [1] was found to be 0.25 µg/mL (≈ 0.514 µM). The MIC in the assay on Streptococcus pneumoniae was determined as 2 µg/mL (≈ 4.11 µM); in the assay with Escherichia coli, 2 µg/mL (≈ 4.11 µM); in the assay with Staphylococcus aureus, 1 µg/mL (≈ 2.06 µM).
For `COc1ccc2nccc(-n3ncc4c3CCC(NCc3ccc5c(c3)NC(=O)CS5)C4)c2c1` (stereo not given), the half-inhibitory concentration (IC50) in assay [1] is 2 µg/mL (≈ 4.24 µM). Also, the minimum inhibitory concentration (MIC) with Streptococcus pneumoniae, against Escherichia coli and in the assay with Staphylococcus aureus was above 128 µg/mL throughout.
In the case of `COc1ccc2nccc(-n3cc4c(n3)CC(NC(=O)c3ccc5c(c3)NC(=O)CS5)CC4)c2c1` (stereo not given), the IC50 is above 8 µg/mL in assay [1] and 0.5 µg/mL (≈ 1.03 µM) in assay [2]. Moreover, the values for the MIC against Streptococcus pneumoniae, in the assay with Escherichia coli and with Staphylococcus aureus were 4 µg/mL (≈ 8.24 µM), 8 µg/mL (≈ 16.5 µM) and 8 µg/mL (≈ 16.5 µM), respectively.
With `COc1ccc2nccc(-n3cc4c(n3)CCC(NCc3ccc5c(c3)OCCO5)C4)c2c1` (stereo not given), the 50% inhibitory concentration (IC50) came out at 2 µg/mL (≈ 4.52 µM) in assay [1] and 0.06 µg/mL (≈ 0.136 µM) in assay [2]. In addition, the MIC with Streptococcus pneumoniae amounted to 0.5 µg/mL (≈ 1.13 µM); against Escherichia coli, 64 µg/mL (≈ 145 µM); with Staphylococcus aureus, 0.5 µg/mL (≈ 1.13 µM).
